pKi: −log10 of the molar value.
Molecular target: T1, cloned human H3 receptor, stably expressed in SK-N-MC cells (Homo sapiens, UniProt Q9Y5N1)
T1 construct: expressed in transfected cells
Assay: H3 receptor binding (N-[3H]-α-methylhistamine displacement)
Conditions: SK-N-MC membranes, 0.8 nM N-[3H]-α-methylhistamine

T1 sequence (Q9Y5N1 whole entry): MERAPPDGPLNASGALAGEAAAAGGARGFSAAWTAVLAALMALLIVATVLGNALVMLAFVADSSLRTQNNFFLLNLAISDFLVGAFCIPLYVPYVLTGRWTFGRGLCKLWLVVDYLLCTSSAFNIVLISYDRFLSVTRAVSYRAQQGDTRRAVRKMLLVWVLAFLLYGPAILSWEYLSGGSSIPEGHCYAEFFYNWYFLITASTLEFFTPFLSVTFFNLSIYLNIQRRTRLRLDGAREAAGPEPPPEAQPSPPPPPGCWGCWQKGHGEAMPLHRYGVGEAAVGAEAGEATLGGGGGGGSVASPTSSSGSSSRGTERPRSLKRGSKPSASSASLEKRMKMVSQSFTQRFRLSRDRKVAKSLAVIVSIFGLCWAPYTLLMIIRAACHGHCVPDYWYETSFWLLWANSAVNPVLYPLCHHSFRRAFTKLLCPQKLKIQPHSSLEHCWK

Compound	pKi
Oc1ccc([C@H]2CN3CCC[C@H]3c3cc(OCCCN4CCOCC4)ccc32)cn1 (relative stereo) [Example 51B, Trans-5-[9-(3-Morpholin-4-yl-propoxy)-1,2,3,5,6,10b-hexahydro-pyrrolo[2,1-a]isoquinolin-6-yl]-pyridin-2-ol]	8.30
COc1ccc([C@@H]2CN3CCC[C@H]3c3cc(OCCCN4CCOCC4)ccc32)cc1 (racemic) [Example 93]	8.30
c1cncc([C@H]2CN3CCC[C@H]3c3cc(OCCCN4CCOCC4)ccc32)c1 (relative stereo) [Example 59]	8.70
c1cc([C@H]2CN3CCC[C@H]3c3cc(OCCCN4CCOCC4)ccc32)cs1 (relative stereo) [Example 56]	8.52
c1cn(-c2ccc([C@H]3CN4CCC[C@H]4c4cc(OCCCN5CCOCC5)ccc43)cc2)cn1 (relative stereo) [Example 48B, Trans-6-(4-Imidazol-1-yl-phenyl)-9-(3-morpholin-4-yl-propoxy)-1,2,3,5,6,10b-hexahydro-pyrrolo[2,1-a]isoquinoline]	8.30
Cc1ccc([C@@H]2CN3CCC[C@H]3c3cccc(OCCCN4CCCCC4)c32)cc1 (relative stereo) [Example 5C, Trans-7-(3-Piperidine-1-yl-propoxy)-6-p-tolyl-1,2,3,5,6,10b-hexahydro-pyrrolo[2,1-a]isoquinoline]	7.07
Cc1ccc([C@@H]2CN3CCC[C@H]3c3cc(OCCCN4CCCCC4)ccc32)cc1 (relative stereo) [Example 5B, Trans-9-(3-Piperidine-1-yl-propoxy)-6-p-tolyl-1,2,3,5,6,10b-hexahydro-pyrrolo[2,1-a]isoquinoline]	9.00
Brc1ccc([C@H]2CN3CCC[C@H]3c3ccc(OCCCN4CCCCC4)cc32)cc1 (relative stereo) [Example 42, Trans-6-(4-Bromo-phenyl)-8-(3-piperidin-1-yl-propoxy)-1,2,3,5,6,10b-hexahydro-pyrrolo[2,1-a]isoquinoline]	8.70
FC(F)(F)Sc1ccc([C@H]2CN3CCC[C@H]3c3cc(OCCCN4CCOCC4)ccc32)cc1 (relative stereo) [Example 61]	7.54
Clc1ccccc1[C@@H]1CN2CCC[C@H]2c2cccc(OCCCN3CCCCC3)c21 (relative stereo) [Example 12C, Cis-6-(2-Chloro-phenyl)-7-(3-piperidin-1-yl-propoxy)-1,2,3,5,6,10b-hexahydro-pyrrolo[2,1-a]isoquinoline]	7.04
c1cc([C@H]2CN3CCC[C@H]3c3cc(OCCCN4CCOCC4)ccc32)[nH]n1 (relative stereo) [Example 54]	8.40
O=[N+]([O-])c1cccc([C@H]2CN3CCC[C@H]3c3cccc(OCCCN4CCCCC4)c32)c1 (relative stereo) [Example 4C, Cis-6-(3-Nitro-phenyl)-7-(3-piperidin-1-yl-propoxy)-1,2,3,5,6,10b-hexahydro-pyrrolo[2,1-a]isoquinoline]	7.01
COc1ccc([C@H]2CN3CCC[C@H]3c3cc(OCCCN4CCOCC4)ccc32)cc1Cl (relative stereo) [Example 64]	8.52
c1cnc([C@H]2CN3CCC[C@H]3c3cc(OCCCN4CCOCC4)ccc32)cn1 (relative stereo) [Example 50B, Trans-9-(3-Morpholin-4-yl-propoxy)-6-pyrazin-2-yl-1,2,3,5,6,10b-hexahydro-pyrrolo[2,1-a]isoquinoline]	6.74
c1ncc([C@H]2CN3CCC[C@H]3c3cc(OCCCN4CCOCC4)ccc32)s1 (relative stereo) [Example 52]	8.40
Clc1ccccc1[C@H]1CN2CCC[C@H]2c2cccc(OCCCN3CCCCC3)c21 (relative stereo) [Example 12D, Trans-6-(2-Chloro-phenyl)-7-(3-piperidin-1-yl-propoxy)-1,2,3,5,6,10b-hexahydro-pyrrolo[2,1-a]isoquinoline]	7.13

Compound	pKi
CSc1ccc([C@H]2CN3CCC[C@H]3c3cc(OCCCN4CCOCC4)ccc32)cc1 (relative stereo) [Example 63]	7.80
c1cc([C@@H]2CN3CCC[C@H]3c3cc(OCCCN4CCCCC4)ccc32)ccn1 (relative stereo) [Example 27A, Cis-9-(3-Piperidin-1-yl-propoxy)-6-pyridin-4-yl-1,2,3,5,6,10b-hexahydro-pyrrolo[2,1-a]isoquinoline]	9.00
CSc1ccc([C@@H]2CN3CCC[C@H]3c3cc(OCCCN4CCCCC4)ccc32)cc1 (relative stereo) [Example 39B, Trans-6-(4-Methylsulfanyl-phenyl)-9-(3-piperidin-1-yl-propoxy)-1,2,3,5,6,10b-hexahydro-pyrrolo[2,1-a]isoquinoline]	9.00
c1ccc([C@@H]2CN3CCC[C@H]3c3ccc(OCCCN4CCCCC4)cc32)cc1 (relative stereo) [Example 44]	9.00
N#Cc1cccc([C@H]2CN3CCC[C@H]3c3cc(OCCCN4CCOCC4)ccc32)c1 (relative stereo) [Example 58]	8.70
c1cn(-c2ccc([C@@H]3CN4CCC[C@H]4c4cc(OCCCN5CCOCC5)ccc43)cc2)cn1 (relative stereo) [Example 48A, Cis-6-(4-Imidazol-1-yl-phenyl)-9-(3-morpholin-4-yl-propoxy)-1,2,3,5,6,10b-hexahydro-pyrrolo[2,1-a]isoquinoline]	8.22
FC(F)(F)Sc1cccc([C@H]2CN3CCC[C@H]3c3cc(OCCCN4CCOCC4)ccc32)c1 (relative stereo) [Example 62]	8.22
c1ccn2c([C@H]3CN4CCC[C@H]4c4cc(OCCCN5CCOCC5)ccc43)cnc2c1 (relative stereo) [Example 55]	8.70
Clc1ccc([C@H]2CN3CCC[C@H]3c3cc(OCCCN4CCCCC4)ccc32)cc1 (relative stereo) [Example 66B, Trans-6-(4-chloro-phenyl)-9-(3-piperidin-1-yl-propoxy)-1,2,3,5,6,10b-hexahydro-pyrrolo[2,1-a]isoquinoline]	9.00
c1csc([C@H]2CN3CCC[C@H]3c3cc(OCCCN4CCOCC4)ccc32)n1 (relative stereo) [Example 53]	8.52
Fc1ccc([C@@H]2CN3CCC[C@H]3c3cccc(OCCCN4CCCCC4)c32)cc1 (relative stereo) [Example 14C]	6.70
O=[N+]([O-])c1ccc([C@@H]2CN3CCC[C@H]3c3cccc(OCCCN4CCCCC4)c32)cc1 (relative stereo) [Example 2C, Trans-6-(4-Nitro-phenyl)-7-(3-piperidin-1-yl-propoxy)-1,2,3,5,6,10b-hexahydro-pyrrolo[2,1-a]isoquinoline]	7.54
Clc1ccc([C@H]2CN3CCC[C@H]3c3cc(OCCCN4CCCCC4)ccc32)cc1Cl (relative stereo) [Example 6B, Trans-6-(3,4-Dichloro-phenyl)-9-(3-piperidin-1-yl-propoxy)-1,2,3,5,6,10b-hexahydro-pyrrolo[2,1-a]isoquinoline]	9.00
c1cnc([C@@H]2CN3CCC[C@H]3c3cc(OCCCN4CCOCC4)ccc32)cn1 (relative stereo) [Example 50A, Cis-9-(3-Morpholin-4-yl-propoxy)-6-pyrazin-2-yl-1,2,3,5,6,10b-hexahydro-pyrrolo[2,1-a]isoquinoline]	8.40
c1ccc([C@H]2CN3CCC[C@H]3c3cc(OCCCN4CCOCC4)ccc32)nc1 (relative stereo) [Example 60]	8.52
Clc1ccc([C@H]2CN3CCC[C@H]3c3cccc(OCCCN4CCCCC4)c32)cc1Cl (relative stereo) [Example 6C]	7.12

— patent publication US8273762B2, “Hexahydro-pyrrolo-isoquinoline compounds” (Janssen Pharmaceutica NV, priority 2005, dated 2012)
